For orientation: melting point means the temperature of the solid-liquid transition.

`COc1ccc(/C=C/C(=O)CC(=O)/C=C/c2ccc(O)c(OC)c2)c(O)c1` [CU256, (1E,6E)-1-(2-hydroxy-4-methoxyphenyl)-7-(4-hydroxy-3-methoxyphenyl)hepta-1,6-diene-3,5-dione] gave a melting point of 108 to 113 °C.
`COc1cccc(O)c1/C=C/C(=O)CC(=O)/C=C/c1ccc(O)cc1` [CU275, (1E,6E)-1-(2-hydroxy-6-methoxyphenyl)-7-(4-hydroxyphenyl)hepta-1,6-diene-3,5-dione] returned a melting point of 94 to 99 °C.
As to `COc1ccc(/C=C/C(=O)CC(=O)/C=C/c2ccccn2)cc1O` [CU218, (1E,6E)-1-(3-hydroxy-4-methoxyphenyl)-7-(pyridin-2-yl)hepta-1,6-diene-3,5-dione], the melting point fell in the range of 182 to 187 °C.
Turning to `CCn1c2ccccc2c2cc(/C=C/C(=O)CC(=O)/C=C/c3ccc(OC)c(O)c3)ccc21` [CU108, (1E,6E)-1-(9-ethyl-9H-carbazol-3-yl)-7-(3-hydroxy-4-methoxyphenyl)hepta-1,6-diene-3,5-dione], the melting point lay within 100 to 103 °C.
With `Nc1ccc(/C=C/C(=O)CC(=O)/C=C/c2ccc(O)cc2)cc1` [CU408, (1E,6E)-1-(4-aminophenyl)-7-(4-hydroxyphenyl)hepta-1,6-diene-3,5-dione] the figure was 212 to 217 °C.
The compound `COc1ccc(/C=C/C(=O)CC(=O)/C=C/c2ccc(O)c([N+](=O)[O-])c2)cc1O` [CU041, (1E,6E)-1-(3-hydroxy-4-methoxyphenyl)-7-(4-hydroxy-3-nitrophenyl)hepta-1,6-diene-3,5-dione] registered a melting point of 220 to 224 °C.
With `COc1ccc(/C=C/C(=O)CC(=O)/C=C/c2ccc(OC)c(O)c2)c(OC)c1` [CU074, (1E,6E)-1-(2,4-dimethoxyphenyl)-7-(3-hydroxy-4-methoxyphenyl)hepta-1,6-diene-3,5-dione] the figure was 64 to 70 °C; with `O=C(/C=C/c1ccc(O)cc1)CC(=O)/C=C/c1cccc(Oc2ccccc2)c1` [CU214, (1E,6E)-1-(4-hydroxyphenyl)-7-(3-phenoxyphenyl)hepta-1,6-diene-3,5-dione], 194 to 198 °C; with `O=C(/C=C/c1ccc(O)cc1)CC(=O)/C=C/c1ccc2c(c1)OCCO2` [CU232, (1E,6E)-1-(2,3-dihydrobenzo[1,4]dioxin-6-yl)-7-(4-hydroxyphenyl)hepta-1,6-diene-3,5-dione], 169 to 173 °C.
With `O=C(/C=C/c1ccc(O)cc1)CC(=O)/C=C/c1cc(F)cc(F)c1` [CU468, (1E,6E)-1-(3,5-difluorophenyl)-7-(4-hydroxyphenyl)hepta-1,6-diene-3,5-dione] the figure was 153 to 156 °C; with `COc1cc(/C=C/C(=O)CC(=O)/C=C/c2ccc(OC)c3ccccc23)ccc1O` [CU118, (1E,6E)-1-(4-hydroxy-3-methoxyphenyl)-7-(4-methoxynaphthalen-1-yl)hepta-1,6-diene-3,5-dione], 193 to 196 °C.
As to `COc1ccc(/C=C/C(=O)CC(=O)/C=C/c2ccc(OC)c(O)c2)c(O)c1` [CU282, (1E,6E)-1-(2-hydroxy-4-methoxyphenyl)-7-(3-hydroxy-4-methoxyphenyl)hepta-1,6-diene-3,5-dione], the melting point was in the range of 147 to 152 °C.
As to `CS(=O)(=O)Oc1ccccc1/C=C/C(=O)CC(=O)/C=C/c1ccc(O)cc1` [CU483, (1E,6E)-1-(4-hydroxyphenyl)-7-[2-(methylsulfonyloxy)phenyl]hepta-1,6-diene-3,5-dione], the melting point fell in the range of 163 to 167 °C.
With `COc1cc(/C=C/C(=O)CC(=O)/C=C/c2ccc(N(C)C)cc2[N+](=O)[O-])ccc1O` [CU192, (1E,6E)-1-(4-dimethylamino-2-nitrophenyl)-7-(4-hydroxy-3-methoxyphenyl)hepta-1,6-diene-3,5-dione] the figure was 203 to 210 °C; with `O=C(/C=C/c1ccc(O)cc1)CC(=O)/C=C/c1ccccc1-c1cccc2ccccc12` [CU528, (1E,6E)-1-(4-hydroxyphenyl)-7-[2-(naphthalen-1-yl)phenyl]hepta-1,6-diene-3,5-dione], 95 to 101 °C.
With `O=C(/C=C/c1ccc(O)cc1)CC(=O)/C=C/c1ccc2nccnc2c1` [CU348, (1E,6E)-1-(4-hydroxyphenyl)-7-(quinoxalin-6-yl)hepta-1,6-diene-3,5-dione] the figure was 251 to 255 °C; with `COc1cc(/C=C/C(=O)CC(=O)/C=C/c2ccc(Cl)cc2)ccc1O` [CU020, (1E,6E)-1-(4-chlorophenyl)-7-(4-hydroxy-3-methoxyphenyl)hepta-1,6-diene-3,5-dione], 59 to 61 °C.
With `O=C(/C=C/c1ccc2cc[nH]c2c1)CC(=O)/C=C/c1ccc2cc[nH]c2c1` [CU391, (1E,6E)-1,7-bis(1H-indol-6-yl)hepta-1,6-diene-3,5-dione] the figure was 247 to 255 °C; with `O=C(/C=C/c1ccc(O)cc1)CC(=O)/C=C/c1cc(OCc2ccc(Cl)cc2Cl)ccc1[N+](=O)[O-]` [CU493, (1E,6E)-1-[5-(2,4-dichlorobenzyloxy)-2-nitrophenyl]-7-(4-hydroxyphenyl)hepta-1,6-diene-3,5-dione], 157 to 161 °C; with `COc1cc(/C=C/C(=O)CC(=O)/C=C/c2cc(OC)c(OC)c(OC)c2)ccc1O` [CU006, (1E,6E)-1-(4-hydroxy-3-methoxyphenyl)-7-(3,4,5-trimethoxyphenyl)hepta-1,6-diene-3,5-dione], 80 to 83 °C.
In turn, `COc1cc(/C=C/C(=O)CC(=O)/C=C/c2ccc(O)cc2O)ccc1O` [CU257, (1E,6E)-1-(2,4-dihydroxyphenyl)-7-(4-hydroxy-3-methoxyphenyl)hepta-1,6-diene-3,5-dione] showed a melting point of 99 to 108 °C.
With `O=C(/C=C/c1cc2ccccc2[nH]1)CC(=O)/C=C/c1cc2ccccc2[nH]1` [CU393, (1E,6E)-1,7-bis(1H-indol-2-yl)hepta-1,6-diene-3,5-dione] the figure was 264 to 268 °C; with `COc1cc(/C=C/C(=O)CC(=O)/C=C/c2ccc(N(C)C)c(OC)c2)ccc1O` [CU033, (1E,6E)-1-(4-dimethylamino-3-methoxyphenyl)-7-(4-hydroxy-3-methoxyphenyl)hepta-1,6-diene-3,5-dione], 68 to 75 °C; with `Cc1ccc(-n2cccc2/C=C/C(=O)CC(=O)/C=C/c2ccc(O)cc2)cc1` [CU338, (1E,6E)-1-(4-hydroxyphenyl)-7-[1-(4-methylphenyl)-1H-pyrrol-2-yl]hepta-1,6-diene-3,5-dione], 144 to 150 °C.
With `COc1cc(/C=C/C(=O)CC(=O)/C=C/c2ccc(Cl)c(Cl)c2)ccc1O` [CU046, (1E,6E)-1-(3,4-dichlorophenyl)-7-(4-hydroxy-3-methoxyphenyl)hepta-1,6-diene-3,5-dione] the figure was 70 to 76 °C; with `COc1cc(/C=C/C(=O)CC(=O)/C=C/c2ccc(O)cc2)ccc1[N+](=O)[O-]` [CU050, (1E,6E)-1-(4-hydroxyphenyl)-7-(3-methoxy-4-nitrophenyl)hepta-1,6-diene-3,5-dione], 190 to 192 °C; with `COc1c(O)cccc1/C=C/C(=O)CC(=O)/C=C/c1ccc(O)cc1` [CU174, (1E,6E)-1-(4-hydroxyphenyl)-7-(3-hydroxy-2-methoxyphenyl)hepta-1,6-diene-3,5-dione], 165 to 169 °C.
